Data taken from patent US20010010922A1, “CLONING AND USES OF THE GENETIC LOCUS BCL-6” (priority 1994, published 2001).
“Also recorded” adds a separate entry of the source. Peptide text beside a SMILES is read from it. * marks the point of attachment. Cbz = O=C(OCc1ccccc1)*

What was measured:
BCL-6 [1] = test: MEK-2E mediated degradation of BCL-6 in transfected 293T cells, Western blot; type: cell-based; settings: 293T cells transfected with BCL-6 and MEK-2E; inhibitor 50 μM added 8 hrs after transfection
Procedure: (§1) FIGS. 22A-22B MAPK-induced BCL-6 degradation is mediated by the ubiquitin/proteasome pathway. (FIG. 22A) Western blot analysis of BCL-6 proteins in 293T cells transfected with BCL-6 in the absence or presence of co-transfected MEK-2E treated with 0.2% DMSO (lanes 1-3), 50 μM Calpain inhibitor II (lanes 4-6), or 50 μM MG132 (lanes 7-9) (added 8hrs after transfection). (FIG. 22B) 293T cells were transfected with BCL-6, His-Ub, and MEK-2E in the absence (lanes 1-4) or presence of MG132 (lanes 5-8). Cell lysates were immunoprecipitated with anti-BCL-6 antibodies (N-70-6) and the immunoprecipitants were analyzed by 6% SDS-PAGE followed by Western blot analysis using anti-ubiquitin antibodies.
293T cells, grow in DMEM, 10% FBS, were transfected transiently with various DNA vectors using standard calcium phosphate precipitation methods. […]
(§2) Total RNA were isolated from cells by using Trizol-reagents (GIBCO-BRL) and equal amounts of RNA were separated on 1% formaldehyde-agarose gel. […] For Ramos cells and their stable transfectants (untreated or treated), equal amounts of protein were analyzed by 8% or 10% SDS-PAGE, and subsequently by Western blot analysis using anti-BCL-6 (N-70-6), anti-ERK2 (C-14) or anti-HA (12CA5) antibodies at 1:3000, 1:1000 or 1:500 dilutions. […]

[2] = tested on: BCL-6/ubiquitin conjugates; test: In vivo ubiquitination assay in transfected 293T cells (anti-BCL-6 immunoprecipitation, anti-ubiquitin Western blot); type: cell-based
Procedure: as §1, with “antibodies. […]” for “antibodies.”
Therefore, we tested whether MEK-2E mediated degradation of BCL-6 in transfected 293T cells could be inhibited by the proteasome inhibitor Cbz-LLL (MG132) (Kim and Maniatis, 1996; Palombella et al., 1994; Rock et al., 1994). […] Because the addition of multiple ubiquitins to the proteolysis substrate is a key step preceding target degradation by the proteasome, we then tested whether BCL-6/ubiquitin conjugates in vivo could be detected. […] Cell lysates were subjected to immunoprecipitation with anti-BCL-6 antibodies, and the immunoprecipitates were analyzed by Western blotting using anti-ubiquitin antibodies. […]

BCL-6 [3] = test: Anti-IgM treatment of Ramos cells, Western blot of BCL-6; type: cell-based, human; settings: inhibitor 50 μM added 30 min (PD098059) or 1 hr (MG132) before anti-IgM
Procedure: FIGS. 23A-23E. BCL-6 is phosphorylated and degraded by antigen receptor signaling in B cells. Ramos cells ([…]) were treated with anti-IgM ([…]) and harvested at different time points after treatment as indicated. (FIG. 23A) (Top three panels) Equal amounts of cell extracts were used for Western blot analysis using anti-BCL-6 (top), or anti-ERK2 (middle) antibodies, and for solid phase ERK2 kinase assays (MBP, bottom); Equal amounts of RNAs (10 μg) were used for Northern blot analysis with BCL-6 or GAPDH probes (bottom). (FIG. 23B) Hyperphosphorylated BCL-6 proteins are more unstable. […] Cell extracts were immunoprecipitated with anti-BCL-6 antibodies and analyzed by SDS-PAGE followed by autoradiography. […] Equal amounts of cell extracts were loaded on 7% (HA-BCL-6 or HA-BCL-6Ala333,343) or 10% SDS-PAGE (HA-BCL-6ZF) and the amount of exogenous BCL-6 proteins were analyzed by Western blot using anti-HA antibodies (12CA5).
as §2

Row | Structure (SMILES) | inhibition of MEK-2E mediated BCL-6 degradation (BCL-6 [1]) | multi-ubiquitinated forms of BCL-6 (BCL-6/ubiquitin conjugates) ([2]; 293T cells transfected with BCL-6, His-Ub and MEK-2E, MG132 50 μM (lane 8)) | multi-ubiquitinated forms of BCL-6 (BCL-6/ubiquitin conjugates) ([2]; 293T cells transfected with BCL-6 and His-Ub, no MEK-2E, MG132 50 μM (lane 7)) | inhibition of anti-IgM-induced BCL-6 degradation (BCL-6 [3])
1 | CC(C)C[C@@H](C=O)NC(=O)[C@H](CC(C)C)NC(=O)[C@H](CC(C)C)NC(=O)OCc1ccccc1 [MG132, N-CBZ-Leu-Leu-Leu-AL] (Cbz-Leu-Leu-Leu-aldehyde) | prevented; also recorded: completely inhibited | detectable at high levels | low levels were detectable | specifically inhibited; also recorded: prevented
2 | COc1cccc(-c2cc(=O)c3ccccc3o2)c1N [PD098059] | – | – | – | inhibited; also recorded: prevented
3 | CSCC[C@@H](C=O)NC(=O)[C@H](CC(C)C)NC(=O)[C@H](CC(C)C)NC(C)=O [calpain inhibitor II] (Ac-Leu-Leu-Met-aldehyde) | not | – | – | –
